Laboratory results published in PubChem BioAssay AID2060508 (Molecular Pharmacology Branch, DTP, NCI, 2025).

System: 454973-116-R2-J3-PDC spheroids, viability, % test/control
Test: Anticancer human tumor 454973-116-R2-J3-PDC patient-derived pancreatic carcinoma cell line growth inhibition [GQUAD]
Details: spheroids with HUVEC and MSC; for IC50: curve of first compound; for viability, T/C: stronger effect = lower value
Summary of the method: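 Viability of tumor cells grown as complex spheroids with endothelial and stromal cells, exposed to drug combinations. Top concentration at or near clinical Cmax (else 10 microM), diluted in half-log increments.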

[1] = second compound 0.0316 µM, first compound 0.0316 µM
[2] = second compound 0.0316 µM, first compound 0.1 µM
[3] = second compound 0.0316 µM, first compound 0.316 µM
[4] = second compound 0.0316 µM, first compound 1 µM
[5] = second compound 0.0316 µM, first compound 3.16 µM
[6] = second compound 0.0316 µM, first compound 10 µM
[7] = second compound 0.1 µM, first compound 0.0316 µM
[8] = second compound 0.1 µM, first compound 0.1 µM
[9] = second compound 0.1 µM, first compound 0.316 µM
[10] = second compound 0.1 µM, first compound 1 µM
[11] = second compound 0.1 µM, first compound 3.16 µM
[12] = second compound 0.1 µM, first compound 10 µM
[13] = second compound 0.316 µM, first compound 0.0316 µM
[14] = second compound 0.316 µM, first compound 0.1 µM
[15] = second compound 0.316 µM, first compound 0.316 µM
[16] = second compound 0.316 µM, first compound 1 µM
[17] = second compound 0.316 µM, first compound 3.16 µM
[18] = second compound 0.316 µM, first compound 10 µM
[19] = second compound 1 µM, first compound 0.0316 µM
[20] = second compound 1 µM, first compound 0.1 µM
[21] = second compound 1 µM, first compound 0.316 µM
[22] = second compound 1 µM, first compound 1 µM
[23] = second compound 1 µM, first compound 3.16 µM
[24] = second compound 1 µM, first compound 10 µM
[25] = second compound 3.16 µM, first compound 0.0316 µM
[26] = second compound 3.16 µM, first compound 0.1 µM
[27] = second compound 3.16 µM, first compound 0.316 µM
[28] = second compound 3.16 µM, first compound 1 µM
[29] = second compound 3.16 µM, first compound 3.16 µM
[30] = second compound 3.16 µM, first compound 10 µM
[31] = second compound 10 µM, first compound 0.0316 µM
[32] = second compound 10 µM, first compound 0.1 µM
[33] = second compound 10 µM, first compound 0.316 µM
[34] = second compound 10 µM, first compound 1 µM
[35] = second compound 10 µM, first compound 3.16 µM
[36] = second compound 10 µM, first compound 10 µM
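Also: spheroids exposed to compounds for seven days.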
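For viability, T/C in this document: 100% = DMSO vehicle control viability.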

CC(=O)O[C@H]1C(=O)[C@@]2(C)[C@H]([C@H](OC(=O)c3ccccc3)[C@]3(O)C[C@H](OC(=O)[C@H](O)[C@@H](NC(=O)c4ccccc4)c4ccccc4)C(C)=C1C3(C)C)[C@]1(OC(C)=O)CO[C@@H]1C[C@@H]2O + Cc1[nH]c2ccc(F)cc2c1-c1nc2c3cccnc3c3ncccc3c2[nH]1
IC50 (second compound 0.0316 µM): < 31.6 nM
IC50 (second compound 0.1 µM): < 31.6 nM
IC50 (second compound 0.316 µM): < 31.6 nM
IC50 (second compound 1 µM): < 31.6 nM
IC50 (second compound 3.16 µM): < 31.6 nM
IC50 (second compound 10 µM): < 31.6 nM
viability, T/C [1]: 15.2%
viability, T/C [2]: 8.26%
viability, T/C [3]: 7.28%
viability, T/C [4]: 6.32%
viability, T/C [5]: 7.13%
viability, T/C [6]: 7.83%
viability, T/C [7]: 14.5%
viability, T/C [8]: 9.64%
viability, T/C [9]: 7.87%
viability, T/C [10]: 6.95%
viability, T/C [11]: 7.87%
viability, T/C [12]: 8.54%
viability, T/C [13]: 14.6%
viability, T/C [14]: 9.07%
viability, T/C [15]: 5.61%
viability, T/C [16]: 5.86%
viability, T/C [17]: 5.85%
viability, T/C [18]: 9.29%
viability, T/C [19]: 12.3%
viability, T/C [20]: 7.44%
viability, T/C [21]: 6.58%
viability, T/C [22]: 5.96%
viability, T/C [23]: 7.37%
viability, T/C [24]: 10.1%
viability, T/C [25]: 11.1%
viability, T/C [26]: 8.56%
viability, T/C [27]: 7.65%
viability, T/C [28]: 6.65%
viability, T/C [29]: 6.16%
viability, T/C [30]: 9.4%
viability, T/C [31]: 12.5%
viability, T/C [32]: 8.79%
viability, T/C [33]: 7.16%
viability, T/C [34]: 7.79%
viability, T/C [35]: 7.84%
viability, T/C [36]: 7.93%

COc1cccc2c1C(=O)c1c(O)c3c(c(O)c1C2=O)CC(O)(C(=O)CO)CC3OC1CC(N)C(O)C(C)O1 (stereo not drawn) + Cc1[nH]c2ccc(F)cc2c1-c1nc2c3cccnc3c3ncccc3c2[nH]1
IC50 (second compound 0.0316 µM): 166 nM
IC50 (second compound 0.1 µM): 188 nM
IC50 (second compound 0.316 µM): 154 nM
IC50 (second compound 1 µM): 143 nM
IC50 (second compound 3.16 µM): 145 nM
IC50 (second compound 10 µM): 158 nM
viability, T/C [1]: 106%
viability, T/C [2]: 63.1%
viability, T/C [3]: 30.4%
viability, T/C [4]: 22.6%
viability, T/C [5]: 11.4%
viability, T/C [6]: 0.63%
viability, T/C [7]: 97.8%
viability, T/C [8]: 69.8%
viability, T/C [9]: 27.2%
viability, T/C [10]: 28.9%
viability, T/C [11]: 11%
viability, T/C [12]: 0.58%
viability, T/C [13]: 96.5%
viability, T/C [14]: 59.7%
viability, T/C [15]: 27.6%
viability, T/C [16]: 28.2%
viability, T/C [17]: 11.8%
viability, T/C [18]: 0.44%
viability, T/C [19]: 90.6%
viability, T/C [20]: 61.4%
viability, T/C [21]: 24.3%
viability, T/C [22]: 26.2%
viability, T/C [23]: 11.1%
viability, T/C [24]: 0.62%
viability, T/C [25]: 93.1%
viability, T/C [26]: 59.6%
viability, T/C [27]: 27.6%
viability, T/C [28]: 24.4%
viability, T/C [29]: 14.8%
viability, T/C [30]: 0.52%
viability, T/C [31]: 81.9%
viability, T/C [32]: 64.7%
viability, T/C [33]: 27%
viability, T/C [34]: 27.1%
viability, T/C [35]: 11.5%
viability, T/C [36]: 0.75%

Nc1ccn(C2OC(CO)C(O)C2(F)F)c(=O)n1 (stereo not drawn) + Cc1[nH]c2ccc(F)cc2c1-c1nc2c3cccnc3c3ncccc3c2[nH]1
IC50 (second compound 0.0316 µM): < 31.6 nM
IC50 (second compound 0.1 µM): < 31.6 nM
IC50 (second compound 0.316 µM): < 31.6 nM
IC50 (second compound 1 µM): < 31.6 nM
IC50 (second compound 3.16 µM): < 31.6 nM
IC50 (second compound 10 µM): < 31.6 nM
viability, T/C [1]: 20.1%
viability, T/C [2]: 13.8%
viability, T/C [3]: 17.1%
viability, T/C [4]: 17.2%
viability, T/C [5]: 17.2%
viability, T/C [6]: 15.5%
viability, T/C [7]: 19.7%
viability, T/C [8]: 13.9%
viability, T/C [9]: 15.5%
viability, T/C [10]: 13.7%
viability, T/C [11]: 17.3%
viability, T/C [12]: 14.8%
viability, T/C [13]: 15.3%
viability, T/C [14]: 15.8%
viability, T/C [15]: 17.7%
viability, T/C [16]: 14.5%
viability, T/C [17]: 16.9%
viability, T/C [18]: 15.8%
viability, T/C [19]: 19%
viability, T/C [20]: 19.2%
viability, T/C [21]: 16%
viability, T/C [22]: 20.1%
viability, T/C [23]: 14.2%
viability, T/C [24]: 17.2%
viability, T/C [25]: 16.1%
viability, T/C [26]: 15.6%
viability, T/C [27]: 17.8%
viability, T/C [28]: 17.4%
viability, T/C [29]: 19.1%
viability, T/C [30]: 16.4%
viability, T/C [31]: 17.5%
viability, T/C [32]: 17.6%
viability, T/C [33]: 17%
viability, T/C [34]: 17%
viability, T/C [35]: 13.8%
viability, T/C [36]: 16.6%

O=c1[nH]cc(F)c(=O)[nH]1 + Cc1[nH]c2ccc(F)cc2c1-c1nc2c3cccnc3c3ncccc3c2[nH]1
IC50 (second compound 0.0316 µM): 2250 nM
IC50 (second compound 0.1 µM): 1530 nM
IC50 (second compound 0.316 µM): 2190 nM
IC50 (second compound 1 µM): 2360 nM
IC50 (second compound 3.16 µM): 1920 nM
IC50 (second compound 10 µM): 1880 nM
viability, T/C [1]: 116%
viability, T/C [2]: 115%
viability, T/C [3]: 109%
viability, T/C [4]: 77.9%
viability, T/C [5]: 34.5%
viability, T/C [6]: 42.2%
viability, T/C [7]: 105%
viability, T/C [8]: 109%
viability, T/C [9]: 109%
viability, T/C [10]: 57.5%
viability, T/C [11]: 33.7%
viability, T/C [12]: 40.5%
viability, T/C [13]: 107%
viability, T/C [14]: 110%
viability, T/C [15]: 105%
viability, T/C [16]: 78.9%
viability, T/C [17]: 31.8%
viability, T/C [18]: 41.1%
viability, T/C [19]: 99.2%
viability, T/C [20]: 97.2%
viability, T/C [21]: 95.4%
viability, T/C [22]: 79.1%
viability, T/C [23]: 33.9%
viability, T/C [24]: 46.3%
viability, T/C [25]: 96.5%
viability, T/C [26]: 96.1%
viability, T/C [27]: 99.9%
viability, T/C [28]: 65.1%
viability, T/C [29]: 31.4%
viability, T/C [30]: 45.6%
viability, T/C [31]: 93.5%
viability, T/C [32]: 87.7%
viability, T/C [33]: 102%
viability, T/C [34]: 63.7%
viability, T/C [35]: 30.9%
viability, T/C [36]: 46.6%
